Test results: ChEMBL document CHEMBL1147236, “Semiplenamides A-G, fatty acid amides from a Papua New Guinea collection of the marine cyanobacterium Lyngbya semiplena” (J Nat Prod, 2003)

System: RBL-2H3
Details: Rattus norvegicus
Description: Activity at AMT in rat RBL-2H3 cells

With `CCCCC/C=C\C/C=C\C/C=C\C/C=C\CCCC(=O)NCCO` the Km was 9.3 µM.
